Assays:
[1] = test system: Timothy syndrome cardiomyocytes; assay: Analysis of cardiomyocyte contractions, Timothy syndrome cardiomyocytes; type: cell-based, human; settings: for contraction irregularity / spontaneous beating rate: 5 μM, 2 hours; for contraction irregularity, long-term repeated treatment / spontaneous beating rate, long-term repeated treatment: 10 μM twice a day for seven days; for rhythmic contraction and cell survival: 10 μM, 7 days, vs untreated control group at day 27; for effects on Timothy syndrome cardiomyocytes: contraction irregularity and beating rate
Protocol: […] The contraction analysis was performed as reported previously (Yazawa et al., 2011). The movies were taken before the treatment, and 2 hours after the treatment of each compound on the intact monolayer Timothy syndrome cardiomyocytes. The contraction rate and the irregularity value of each sample before and after treatment were compared using paired Student t-test.

[2] = test system: Timothy syndrome cardiomyocytes; assay: Current-clamp action potential recordings in Timothy syndrome cardiomyocytes; type: cell-based, human; settings: 2 hr; for paced action potential duration: paced 0.2 Hz
Protocol: The Timothy syndrome and control iPSCs were differentiated into cardiomyocytes following a protocol reported previously (Song et al., 2015). The cardiomyocytes were dissociated into single cells for whole-cell patch-clamp recordings at day 31 and used for patch clamping between day 35 and 45. Whole-cell patch-clamp recordings of iPSC-derived cardiomyocytes were conducted using a MultiClap 700B patch-clamp amplifier (Molecular Devices) and an inverted microscope equipped with differential interface optics (Nikon, Ti-U). The glass pipettes were prepared using borosilicate glass (Sutter Instrument, BF150-110-10) using a micropipette puller (Sutter Instrument, Model P-97). Voltage-clamp measurements were conducted using an extracellular solution consisting of 5 mM BaCl2, 160 mM TEA and 10 mM HEPES (pH7.4 at 25° C.) and a pipette solution of 125 mM CsCl, 0.1 mM CaCl2, 10 mM EGTA, 1 mM MgCl2, 4 mM MgATP and 10 mM HEPES (pH 7.4 with CsOH at 25° C.). The protocol for voltage-clamp recordings was that cells were held at −90 mV and then depolarized to −10 mV for 400 ms at a rate of 0.1 Hz for the Ba^2+ current recordings; cells were held at −90 mV, stimulated with a 2-s family of pulses from −90 to +20 for the current-voltage relationship of the Ba^2+ currents. The recordings were conducted under room temperature. […] The recordings were conducted at 37° C. Cardiac action potentials were stimulated (2 ms, 1 nA) in current clamp mode at 37° C. (0.2 or 0.5 Hz). Recorded action potentials were analyzed using Clampfit 10.4 (Axon Instruments). Control recordings were obtained from cardiomyocytes without treatment.
Patch-Clamp Electrophysiology of the cardiomyocytes was done as described in Example 1.

[3] = test system: Timothy syndrome cardiomyocytes; assay: Calcium imaging (FluoForte) of spontaneous calcium transients in Timothy syndrome cardiomyocytes; type: cell-based, human; settings: 5 μM, 30 min
Protocol: (§1) The Nikon automatic microscope (Nikon Eclipse TiE with a motorized stage) connected to sCMOS camera (Andor Zyla sCMOS 4.2 MP) together with a stage top incubator (at 37° C., 5% CO2 and 20% O2, controlled by TOKAI HIT Hypoxia gas delivery system) were used for this experiment. Nikon objective lens 40× (Nikon CFI Plan Apo Lambda, NA 0.95) was used for single cell recordings and the cardiomyocyte culture media was used as bath solution. The cells were loaded with FluoForte calcium dye for calcium imaging following the manufacturer's instruction (ENZ-51016, Enzo Life Sciences). […] Thirty minutes after the treatment of Fluvoxamine or PRE-084, a second recording was acquired from the same cell. The calcium transient duration and the calcium transient half (50%) decay time from the recordings before and after treatment were analyzed. Paired student's t-test was used for statistics.

control cardiomyocytes [4] = assay: Analysis of cardiomyocyte contractions, healthy control cardiomyocytes; type: cell-based, human; settings: 5 μM, 2 hours
control cardiomyocytes [5] = assay: Calcium imaging of spontaneous calcium transients in control cardiomyocytes; type: cell-based, human; settings: 5 μM, 30 min
Protocol: as §1

LQTS1 cardiomyocytes = assay: Action potential recordings in LQTS1 cardiomyocytes; type: cell-based, human
Protocol: (§2) The Timothy syndrome and control iPSCs were differentiated into cardiomyocytes following a protocol reported previously (Song et al., 2015). The cardiomyocytes were dissociated into single cells for whole-cell patch-clamp recordings at day 31 and used for patch clamping between day 35 and 45. Whole-cell patch-clamp recordings of iPSC-derived cardiomyocytes were conducted using a MultiClap 700B patch-clamp amplifier (Molecular Devices) and an inverted microscope equipped with differential interface optics (Nikon, Ti-U). The glass pipettes were prepared using borosilicate glass (Sutter Instrument, BF150-110-10) using a micropipette puller (Sutter Instrument, Model P-97). Voltage-clamp measurements were conducted using an extracellular solution consisting of 5 mM BaCl2, 160 mM TEA and 10 mM HEPES (pH7.4 at 25° C.) and a pipette solution of 125 mM CsCl, 0.1 mM CaCl2, 10 mM EGTA, 1 mM MgCl2, 4 mM MgATP and 10 mM HEPES (pH 7.4 with CsOH at 25° C.). The protocol for voltage-clamp recordings was that cells were held at −90 mV and then depolarized to −10 mV for 400 ms at a rate of 0.1 Hz for the Ba^2+ current recordings; cells were held at −90 mV, stimulated with a 2-s family of pulses from −90 to +20 for the current-voltage relationship of the Ba^2+ currents. The recordings were conducted under room temperature. […] Recorded action potentials were analyzed using Clampfit 10.4 (Axon Instruments). […]

LQTS6 cardiomyocytes = assay: Paced action potential recordings in LQTS6 cardiomyocytes; type: cell-based, human; settings: 5 μM, 2 hr; paced 0.5 Hz; M54T mutation in MiRP1
sodium channels = settings: reported (Johannessen et al., 2009); cited from earlier work
[6] = test system: isogenic control (Ctrl) iPSC-derived cardiomyocytes; assay: Paced action potential recordings in isogenic control iPSC-derived cardiomyocytes; type: cell-based, human; settings: 5 uM, 2 hr
Protocol: as §2

[7] = test system: Timothy syndrome iPSC-derived cardiomyocytes; assay: GCaMP6f-based calcium imaging in Timothy syndrome iPSC-derived cardiomyocytes; type: cell-based, human; settings: 5 uM, 2 hr
hERG current IKr [8] = target: T1, hERG current IKr (Homo sapiens, UniProt Q12809); type: cell-based; settings: 5 uM, 2 hr; E-4031-sensitive current
T1 construct: hERG current IKr in Timothy syndrome iPSC-derived cardiomyocytes; endogenous in cells; host or cells: Timothy syndrome iPSC-derived cardiomyocytes
Protocol: (§3) The following pulse protocol was used: 5-s voltage clamp applied from 10 mV to 50 mV (Δ20 mV, holding at −40 mV, 0.1 Hz, at 25° C.). After recordings, the extracellular solution was switched to one containing 1 μM E-4031 (TOCRIS). E-4031-sensitive current was measured and analyzed as IKr current using Clampfit 10.4 (Axon Instruments).

[9] = test system: long QT syndrome type 2 iPSC-derived cardiomyocytes; assay: Action potential recordings in long QT syndrome type 2 iPSC-derived cardiomyocytes; type: cell-based, human; settings: 5 uM, 2 hr
Protocol: as §2

hERG current IKr [10] = type: cell-based, human; settings: 5 uM, 2 hr; E-4031-sensitive current
Protocol: as §3

Timothy syndrome mice = assay: Mouse electrocardiography, Timothy syndrome mouse model; type: in vivo; settings: in drinking water
Protocol: A model mouse for Timothy Syndrome was generated by targeting the Rosa26 locus with a G406R mutant in the calcium channel Cacna1c gene (see FIG. 10A). The experimental design for inducing the expression of Timothy syndrome mutant with Dxm treatment (about 28 mg/kg) is shown in FIG. 10B.
(§4) Subcutaneous 4-lead electrocardiograms of isoflurane-anesthetized 12-week old mice were performed using emka ECG and recorded using iox 2.8.0.19. Recordings were conducted a day 4 and 11 after tamoxifen (Sigma-Aldrich, 50 μg/B.W.(g)/day/mouse, i.e., approximately 1 mg/day/mouse) was administrated at day 1-3. Dxm was resolved to drinking water. Total amount of taken dextromethorphan was estimated based on water consumption in each mouse (23-44 mg/kg). To obtain accurate amount of dextromethorphan administration in mice, the concentration of dextromethorphan in the plasma was measured and analyzed at Columbia University Biomarkers Core Laboratory. RR and QT intervals were measured manually using ecgAUTO v2.8.1.27, Excel and Prism 6/7 software.

control littermate mice = assay: Mouse electrocardiography, control littermate mice; type: in vivo; settings: in drinking water
Protocol: as §4

[11] = Dxm concentration in the plasma of mice; type: in vivo, mouse; settings: adult normal mice, Dxm in drinking water
Protocol: as §4

Sigma-1R = Sigma-1R (Homo sapiens, UniProt Q99720); settings: cited from earlier work
Sigma-1R, sequence (Q99720 whole entry, species assumed): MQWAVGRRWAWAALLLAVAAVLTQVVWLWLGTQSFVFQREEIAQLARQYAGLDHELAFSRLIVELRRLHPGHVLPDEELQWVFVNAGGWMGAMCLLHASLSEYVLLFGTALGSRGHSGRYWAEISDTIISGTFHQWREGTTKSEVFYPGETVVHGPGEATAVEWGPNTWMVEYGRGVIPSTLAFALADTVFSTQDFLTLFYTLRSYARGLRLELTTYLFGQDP

T1 sequence (Q12809 whole entry): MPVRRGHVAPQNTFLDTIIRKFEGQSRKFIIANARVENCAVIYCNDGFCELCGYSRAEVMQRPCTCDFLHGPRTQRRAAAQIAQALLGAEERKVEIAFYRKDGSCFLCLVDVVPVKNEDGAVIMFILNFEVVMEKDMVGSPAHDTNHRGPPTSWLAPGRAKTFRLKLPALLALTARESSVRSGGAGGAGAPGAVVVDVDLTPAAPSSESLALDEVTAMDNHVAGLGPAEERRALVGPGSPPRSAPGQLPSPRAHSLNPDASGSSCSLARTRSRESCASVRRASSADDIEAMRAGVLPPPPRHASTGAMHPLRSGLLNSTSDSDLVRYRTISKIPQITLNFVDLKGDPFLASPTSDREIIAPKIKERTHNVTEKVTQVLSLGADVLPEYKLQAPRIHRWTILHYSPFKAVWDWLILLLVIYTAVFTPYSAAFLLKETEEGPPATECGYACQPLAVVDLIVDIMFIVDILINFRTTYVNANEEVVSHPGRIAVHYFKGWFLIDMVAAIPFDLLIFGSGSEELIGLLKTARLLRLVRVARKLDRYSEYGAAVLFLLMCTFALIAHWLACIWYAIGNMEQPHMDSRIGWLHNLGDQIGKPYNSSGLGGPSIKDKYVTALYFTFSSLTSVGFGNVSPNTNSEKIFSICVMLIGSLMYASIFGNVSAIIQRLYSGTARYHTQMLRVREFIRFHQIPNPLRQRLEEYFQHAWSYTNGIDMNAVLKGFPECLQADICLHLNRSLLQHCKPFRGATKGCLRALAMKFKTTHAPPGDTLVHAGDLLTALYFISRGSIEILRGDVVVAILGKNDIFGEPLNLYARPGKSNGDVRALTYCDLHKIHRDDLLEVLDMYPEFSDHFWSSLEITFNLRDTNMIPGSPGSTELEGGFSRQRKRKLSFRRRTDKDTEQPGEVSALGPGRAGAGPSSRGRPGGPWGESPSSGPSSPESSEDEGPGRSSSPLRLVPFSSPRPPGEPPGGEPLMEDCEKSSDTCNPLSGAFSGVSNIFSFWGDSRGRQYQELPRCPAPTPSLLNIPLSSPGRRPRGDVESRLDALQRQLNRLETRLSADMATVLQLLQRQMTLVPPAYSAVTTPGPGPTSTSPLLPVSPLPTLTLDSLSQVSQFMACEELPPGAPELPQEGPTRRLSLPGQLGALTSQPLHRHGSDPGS

COCCCC/C(=N\OCCN)c1ccc(C(F)(F)F)cc1 [Fluvoxamine]
contraction irregularity [1]: significantly decreased
spontaneous beating rate [1]: increased
contraction irregularity, long-term repeated treatment [1]: reduced
spontaneous beating rate, long-term repeated treatment [1]: significantly enhanced
rhythmic contraction and cell survival [1]: enhanced
paced action potential duration ([2]; 5 μM): reduced
abnormal spontaneous calcium transients [3]: alleviated
spontaneous calcium transient duration [3]: significantly reduced
spontaneous calcium transient half decay time [3]: significantly reduced
contraction rhythmicity of control cardiomyocytes (control cardiomyocytes [4]): did not significantly affect
spontaneous beating rate of control cardiomyocytes (control cardiomyocytes [4]): significantly enhanced
calcium transient duration in control cardiomyocytes (control cardiomyocytes [5]): did not significantly affect
calcium transient half decay time in control cardiomyocytes (control cardiomyocytes [5]): did not significantly affect
normal calcium transients in control cardiomyocytes (control cardiomyocytes [5]): did not significantly affect
prolonged paced action potentials (APD90) in LQTS1 cardiomyocytes (LQTS1 cardiomyocytes; 5 μM, 2 hr, paced 0.5 Hz, G269S mutation in KCNQ1): significantly reduced
prolonged paced action potentials (APD90) in LQTS6 cardiomyocytes (LQTS6 cardiomyocytes): significantly reduced

COc1ccc(CNc2nc(NCc3ccc(OC)cc3)c3ncn(C4CCCCC4)c3n2)cc1 [Myoseverin-B]
effects on Timothy syndrome cardiomyocytes [1]: positive effects

CCCN(CCC)CCc1ccc(OC)c(OCCc2ccccc2)c1 [NE-100]
beneficial effects of Fluvoxamine under co-treatment with NE-100 ([1]; Fluvoxamine 5 μM + NE-100 5 μM, 2 hr): blocked

CC(C)CC(=O)Nc1[nH]nc2c1CN(C(=O)C1CCN(C)CC1)C2(C)C [PHA-793887]
effects on Timothy syndrome cardiomyocytes [1]: positive effects

O=C(OCCN1CCOCC1)C1(c2ccccc2)CCCCC1 [PRE-084]
contraction irregularity [1]: decreased
spontaneous beating rate [1]: significantly increased
contraction irregularity, long-term repeated treatment [1]: reduced
spontaneous beating rate, long-term repeated treatment [1]: significantly enhanced
rhythmic contraction and cell survival [1]: enhanced
abnormal spontaneous action potentials ([2]; 5 μM): rescued
paced action potential duration ([2]; 5 μM): rescued
abnormal spontaneous calcium transients [3]: alleviated
spontaneous calcium transient duration [3]: significantly reduced
spontaneous calcium transient half decay time [3]: significantly reduced
contraction rhythmicity of control cardiomyocytes (control cardiomyocytes [4]): did not significantly affect
spontaneous beating rate of control cardiomyocytes (control cardiomyocytes [4]): significantly enhanced
calcium transient duration in control cardiomyocytes (control cardiomyocytes [5]): did not significantly affect
calcium transient half decay time in control cardiomyocytes (control cardiomyocytes [5]): did not significantly affect
normal calcium transients in control cardiomyocytes (control cardiomyocytes [5]): did not significantly affect
effects on sodium channels (sodium channels): little effects

COc1ccc(CCN2CCN(CCCc3ccccc3)CC2)cc1OC [SA4503]
beating rate or contraction irregularity ([1]; 0.1 μM): no obvious improvement
contractions of Timothy syndrome cardiomyocytes ([1]; dose between 1 μM to 5 μM): stopped the contractions

COc1ccc2c(c1)[C@]13CCCC[C@@H]1[C@H](C2)N(C)CC3 [dextromethorphan]
action potential duration (APD90) in Timothy syndrome iPSC-derived cardiomyocytes ([2]; 5 uM, paced): significantly shortened
action potential duration in long QT syndrome type 1 iPSC-derived cardiomyocytes (LQTS1 cardiomyocytes; treated vs untreated): significantly shortened
action potential duration (APD90) in isogenic control cells [6]: not changed
cardiac transient duration [7]: significantly shortened
cardiac transient frequency [7]: significantly increased
IKr current in Timothy syndrome iPSC-derived cardiomyocytes (hERG current IKr [8]): significantly increased
action potential duration in long QT syndrome type 2 iPSC-derived cardiomyocytes [9]: significantly shortened
IKr current in long QT syndrome type 2 iPSC-derived cardiomyocytes (hERG current IKr [10]): significantly increased
QT intervals in Timothy syndrome mice (Timothy syndrome mice; approximately 28 mg/kg, day 4): significantly shortened
QT intervals in Timothy syndrome mice (Timothy syndrome mice; day 11): significantly shortened
QT intervals in control littermate mice (control littermate mice): no significant effect
plasma concentration of Dxm [11]: 5 to 10 ng/mL
Ki (Sigma-1R; read-out: Ki (Sigma-1R), known as Sigma-1R agonist): 150 nM

Fc1ccc([C@@H]2CCNC[C@H]2COc2ccc3c(c2)OCO3)cc1 [paroxetine]
effects on Timothy syndrome cardiomyocytes [1]: no beneficial effects
affinity for sigma 1 receptor (Sigma-1R): low affinity

Reference: US20200030262A1, “THERAPEUTIC SIGMA 1 RECEPTOR AGONISTS FOR TREATING LONG QT SYNDROME TYPE 1, TYPE 2, TYPE 6, TYPE 8 AND RELATED CHANNELOPATHIES” (priority 2017, published 2020)
